Series [1] is described as follows: Metabolic stability in mouse liver microsomes at 0.5 uM measured after 15 to 120 mins in presence of NADPH by LC-MS/MS analysis. Format: ADME, Microsome. To be noted: time 15-120 min. Background: Liver microsomes are vesicles of endoplasmic reticulum, rich in cytochrome P450 enzymes.
The nature of series [2]: Metabolic stability in mouse liver microsomes at 0.5 uM measured after 15 to 120 mins in absence of NADPH by LC-MS/MS analysis. It counts as ADME, Microsome. To be noted: time 15-120 min.
Series [3] relates to Mycobacterium tuberculosis. It counts as functional, H37Rv. To be noted: dose 100 mg/kg; route po; time 3-30 day.
Series [4] deals with Mycolicibacterium smegmatis. In words: Antimycobacterial activity against Mycobacterium smegmatis harboring MsmgdeltammpL3/pMVGHI-mmpL3tb mutant assessed as reduction in bacterial growth measured after 16 hrs […]. Format: functional.
The subject of series [5] is Mycolicibacterium smegmatis. As to the kind of experiment: Antimycobacterial activity against Mycobacterium smegmatis harboring MsmgdeltammpL3/pMVGHI-mmpL3tb G253E mutant assessed as reduction in bacterial growth measured after 16 hrs […]. Format: functional.
Series [6] deals with Mycobacterium tuberculosis. In words: Antimycobacterial activity against Mycobacterium tuberculosis mc2 6206 assessed as decrease in trehalose dimycolate measured after 16 hrs using [14C]acetate by TLC analysis. Format: functional, organism-based. To be noted: DDE = dose-dependent effect.
For series [7], the system named is Mycobacterium tuberculosis. As to the kind of experiment: Antimycobacterial activity against Mycobacterium tuberculosis mc2 6206 assessed as decrease in mycolic acid transfer to cell wall arabinogalactan measured after 16 hrs using [14C]acetate by TLC analysis. It counts as functional, organism-based. To be noted: dose 0.0625-1 µg/ml, DDE = dose-dependent effect.

Series [8] addresses Voltage-gated inwardly rectifying potassium channel KCNH2 (Homo sapiens, UniProt Q12809).
Description: Inhibition of hERG potassium channel in HEK293 cells at 0.3 to 30 uM by whole-cell patch clamp assay
For series [9], the system named is Mycobacterium tuberculosis. In words: microbe, parasite or virus in culture. To be noted: H37Rv mc2 6206, 16 h.
Description: Antimycobacterial activity against Mycobacterium tuberculosis H37Rv mc2 6206 assessed as reduction in bacterial growth measured after 16 hrs by TLC analysis
The subject of series [10] is Mycobacterium tuberculosis. In words: microbe, parasite or virus in culture. To be noted: H37Rv, 168 h.
Description: Antimycobacterial activity against Mycobacterium tuberculosis H37Rv assessed as inhibition of bacterial growth measured after 7 days by microplate alamar blue assay

Results on four compounds are retold here after ChEMBL document CHEMBL5126604, “Design, Synthesis, and Biological Evaluation of Pyrrole-2-carboxamide Derivatives as Mycobacterial Membrane Protein Large 3 Inhibitors for Treating Drug-Resistant Tuberculosis” (J Med Chem, 2022).

Structures are written as SMILES. In brackets after ≈: the same amount, converted by molar mass.

What is called IC50 is the concentration that gives 50% inhibition. A high value points to weaker potency in that assay.

Chain of Voltage-gated inwardly rectifying potassium channel KCNH2 (Q12809 whole entry): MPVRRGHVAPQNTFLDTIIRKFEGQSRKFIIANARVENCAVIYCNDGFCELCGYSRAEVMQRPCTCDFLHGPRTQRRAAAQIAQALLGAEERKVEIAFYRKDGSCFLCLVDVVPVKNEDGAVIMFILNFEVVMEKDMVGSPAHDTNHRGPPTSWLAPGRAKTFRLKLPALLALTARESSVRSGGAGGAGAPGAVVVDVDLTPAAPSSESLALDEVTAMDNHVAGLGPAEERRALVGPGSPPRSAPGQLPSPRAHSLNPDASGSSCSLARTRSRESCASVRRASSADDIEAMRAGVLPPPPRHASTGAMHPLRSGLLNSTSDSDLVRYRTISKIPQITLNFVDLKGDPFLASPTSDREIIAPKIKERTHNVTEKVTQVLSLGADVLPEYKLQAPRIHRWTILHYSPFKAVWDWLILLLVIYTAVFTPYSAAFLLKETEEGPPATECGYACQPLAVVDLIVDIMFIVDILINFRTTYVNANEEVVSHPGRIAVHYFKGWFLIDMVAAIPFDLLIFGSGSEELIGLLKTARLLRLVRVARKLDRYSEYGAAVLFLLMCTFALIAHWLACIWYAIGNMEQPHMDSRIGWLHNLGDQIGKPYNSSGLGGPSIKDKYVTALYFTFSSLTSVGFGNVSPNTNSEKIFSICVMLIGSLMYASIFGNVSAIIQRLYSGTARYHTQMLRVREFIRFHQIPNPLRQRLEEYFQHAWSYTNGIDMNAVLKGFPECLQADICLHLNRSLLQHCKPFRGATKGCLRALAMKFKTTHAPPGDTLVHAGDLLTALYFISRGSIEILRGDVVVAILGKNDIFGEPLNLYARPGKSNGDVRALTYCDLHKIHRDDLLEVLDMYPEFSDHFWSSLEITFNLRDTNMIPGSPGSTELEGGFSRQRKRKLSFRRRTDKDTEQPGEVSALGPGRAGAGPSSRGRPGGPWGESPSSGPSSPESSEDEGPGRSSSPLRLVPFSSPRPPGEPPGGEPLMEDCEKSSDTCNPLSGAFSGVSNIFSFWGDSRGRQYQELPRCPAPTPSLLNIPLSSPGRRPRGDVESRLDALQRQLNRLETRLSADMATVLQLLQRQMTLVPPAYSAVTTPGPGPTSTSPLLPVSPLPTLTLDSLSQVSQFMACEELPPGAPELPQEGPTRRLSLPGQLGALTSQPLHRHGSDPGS

For the compound `O=C(NC1C2CC3CC(C2)CC1C3)c1cc(-c2ccc(F)nc2F)c[nH]1` (stereo not drawn), the Stability is 43.3% in [1] and “Stable” in series [2]. For the same compound, in [3], the Activity was determined as 2 log10CFU. Moreover, the MIC90 in [4] was 0.5 µg/mL (≈ 1.4 µM); in series [9], 0.125 µg/mL (≈ 0.35 µM); in [10], less than 0.016 µg/mL. Also, the “MIC=>90” value in [5] amounted to 4 µg/mL (≈ 11.2 µM). Also, the inhibition entry in [6] and in [7] was “Dde” throughout. Further, the IC50 in series [8] was more than 30 µM.

Regarding `O=C(NC12CC3CC(CC(C3)C1)C2)c1cc(-c2ccc(F)nc2F)c[nH]1`, the values for the Stability in series [1] and in series [2] were 47.6% and “Stable”, respectively. In addition, the Activity in series [3] was determined as 1 log10CFU. This compound displayed an IC50 in series [8] of more than 30 µM. The same compound had an MIC90 in series [10] of less than 0.016 µg/mL.

Consider `O=C(NC12CC3CC(CC(C3)C1)C2)c1cc(-c2ccc(F)cc2F)c[nH]1`, for which the Stability in series [1] is 57.4%; in series [2], “Stable”. In series [3], this compound yielded an Activity of 1.5 log10CFU. The values for the MIC90 in series [4], in series [9] and in [10] were 0.25 µg/mL (≈ 0.701 µM), 0.0625 µg/mL (≈ 0.175 µM) and less than 0.016 µg/mL, respectively. For the same compound, the “MIC=>90” value in series [5] worked out at 2 µg/mL (≈ 5.61 µM). The inhibition result in [6] and in [7] was “Dde” throughout. The half-inhibitory concentration (IC50) in series [8] was more than 30 µM.

For the compound `O=C(NC1CCCCCCC1)c1cc(-c2ccc(F)nc2F)c[nH]1`, the figures for the Stability in [1] and in series [2] were 25.9% and “Stable”, respectively. Further, the MIC90 in series [4] stood at 0.5 µg/mL (≈ 1.5 µM); in series [9] it was 0.25 µg/mL (≈ 0.75 µM); in series [10], 0.03 µg/mL (≈ 0.09 µM). Moreover, the “MIC=>90” value in series [5] was found to be 4 µg/mL (≈ 12 µM). In addition, the inhibition entry in series [6] and in series [7] was “Dde” throughout.
